From patent US20170240556A1, “BIFLUORODIOXALANE-AMINO-BENZIMIDAZOLE KINASE INHIBITORS FOR THE TREATMENT OF CANCER, AUTOIMMUNEINFLAMMATION AND CNS DISORDERS” (4SC DISCOVERY GMBH, priority 2012, published 2017)

System: Wnt/β-catenin signaling pathway
Test: Wnt reporter assay (CellSensor LEF/TCF-bla FreeStyle 293F cells)
Assay type: cell-based
Settings: Homo sapiens; LEF/TCF-bla 293F cells, LiCl and mWnt3a stimulation
Protocol: The Wnt reporter assay was performed in stably transfected human HEK293 cells. Wnt signaling was induced by administration of Wnt3a protein and read out by β-Lactamase mediated cleavage of CCF4-AM and subsequent fluorescent detection.
CellSensor LEF/TCF-bla FreeStyle 293F cells (invitrogen #K1677) contain a beta-lactamase reporter gene under control of the β-catenin/LEF/TCF binding elements stably integrated into FreeStyle 293F cells. This cell line can be used to detect antagonists of the Wnt/β-catenin signaling pathway when stimulated by mouse Wnt3a or LiCl. The detection of beta-lactamase is possible with LiveBLAzer FRET—B/G Loading Kit (invitrogen #K1095) with CCF4-AM as subtrate.
Culture Medium: DMEM Medium +10% dialyzed FBS (PAN 2102-P290310), +1% NEAA (PAA M11-003), +1% P/S (Penicillin/Streptomycin, PAA P11-010) +25 mM HEPES (PAA S11-001), +5 μg/ml Blasticidin (PAA P05-017).
Cells (CellSensor LEF/TCF-bla FreeStyle 293F, invitrogen K1677) were split with Culture Medium to reach a confluence at the beginning of the assay of 80-90%.
At start of the assay, cells were harvested from culture and resuspend in assay medium at density of 0,66*10̂6 cells/ml. Subsequently, 60μ1 cell suspension were pipetted in each well of a Poly-D-Lysine 96 well Plate (BD #354640, vertical rows are marked 1 through 12, horizontal lanes are marked A through H),
Plates were subsequently incubated at 37° C. for at least 2 h.
To stimulate with Wnt3a, overnight prestimulation of Wnt signalling pathway with LiCl is necessary. Subsequently, an 8M aqueous LiCl solution was diluted 1:200 in assay medium, and 30 μl of said diluted LiCl solution was plated into the appropriate wells (see below pipetting scheme). Plates were then incubated at 37° C. over night.
Subsequently, compounds and controls were prepared as follows: mWnt3a (R&D 1324-WN, dissolved in PBS+0.1% BSA to 40 μg/ml) was diluted 1:100 in assay medium (=400 ng/ml). Compounds (Cpd) were diluted to a concentration of 10 mM in DMSO to prepare dilution series in assay medium (final concentrations 30 μM, 10 μM, 3 μM, 1 μM, 0.3 μM, 0.1 μM, 0.03 μM and 0.01 μM), which were pipetted into the appropriate wells (see below pipetting scheme). For each dilution of each compound, 3 replicates were tested. Final DMSO concentration was 0.3%.
LiCl and mWnt3a stimulated cells were used as High control (HC), unstimulated cells were used as low control, a blank was prepared from cell free medium plus mWnt3a, and a functional control was prepared with a known Wnt inhibitor (e.g. PKF118-310), final concentrations were as above.
Subsequently, the well was incubated for 5 h at 37° C.
At t=23 hours, FRET reagent mix (Loading Kit with CCF4-AM, Life Technologies #K1096) was prepared; per plate: 138 μl Solution B, 13.8 μl FRET-reagent, and 2300 μl Solution C. 24 μl FRET reagent mix were plated to each well, subsequently plates were incubated for at least 2 h in the dark (it is possible to incubate over night). Subsequently, plates were measured in the BMG FluorStar® plate reader at an emission waveltengths of 460 and 520 nm and with an excitation wavelength of 405 nm.
To determine potential cytotoxicity of the compounds, plates were centrifuge and the supernatant was discarded by dumping the plates. Subsequently, 100 μl Opti-MEM and 50 μl ViaLight (Lonza #LT07-321) Lysis Buffer were added to each well, followed by incubation for 10 min at room temperature (25° C.). Subsequently, 100 μl ViaLight reagent were added to each well, followed by incubation for 2 min at room temperature (25° C.) in the dark. Optionally, 200 μl of the obtained suspension were transferred to a white 96 well plate. The luminescence was measured with a Tecan Ultra plate reader.

- IC50: < 5 µM
SMILES: COc1cccc(C(=O)Nc2nc3cc4c(cc3[nH]2)OC(F)(F)O4)c1 [Compound 56, N-(2,2-difluoro-5H-[1,3]dioxolo[4′,5′:4,5]benzo[1,2-d]imidazol-6-yl)-3-methoxybenzamide]
